For test [1], the system named is croton oil-induced inflammation of the rat ear. The test can be described thus: topical anti-inflammatory model, croton oil irritant solution on rat ears (based on Fregnan & Torsello 1975). Type of test: in vivo, Rats, Charles River Wistar strain, male. The following applies: for reduction of the increase in ear weight / activity (in words): topical. The procedure:
1. Compounds (5) and (6) were tested for anti-inflammatory activity in a topical model based on that described by Fregnan G. B. & Torsello, A. L. (1975) Current Therapeutic Research 17, No. 4, 375-381.
In the test the activity of the novel compounds was compared with that of naproxen. In outline the method is as follows:
Rats, Charles River Wistar strain, .male. 10/group. Weight range 220-260 g.
Irritant solution applied consists of 74% diethyl ether (20% pyridine, 5% dist. H2 O, 1% croton oil. 0.05 ml is placed on each ear, compound being included in the irritant solution on one ear. 6 hours later the ears are removed by cutting along the hairline and weighed.
-ve controls--no irritant solution.
+ve controls--irritant solution on both ears.

Test [2] deals with cantharidin-induced inflammation of the rat ear. The test can be described thus: anti-inflammatory test induced by the application of cantharidin to the rat ear (Boris & Hurley 1977). The following applies: for Untreated Ear Wt mg ± s.e.: normal control 92.9, inflamed control 146.3; for Treated Ear Wt mg ± s.e.: normal control 95.0, inflamed control 162.0. In kind it is in vivo, male Wistar rats. The method, then: 2. Activity of Compound (5) in an anti-inflammatory test induced by the application of cantharidin to the rat ear
This model developed by Boris A and Hurley M., (1977) J. Invest. Dermatology, 68, 161-164 is claimed to be selective for the anti-inflammatory activity of corticosteroids. Groups of ten male Wistar rats received 0.05 ml per ear of a solution of 400 μg of cantharidin plus or minus compound in tetrahydrofuran. […]

In test [3] the test system is croton oil-induced inflammation of the ear. The test can be described thus: croton oil model of topical anti-inflammatory activity, dose response (1% croton oil in tetrahydrofuran). Type of test: in vivo, rat. The following applies: for Treated Ear Wt mg ± s.e.: normal control 98.5, inflamed control 126.1; for Untreated Ear Wt mg ± s.e.: normal control 99.1, inflamed control 118.7; for ED50: 1% croton oil in tetrahydrofuran. From the text: 3. A direct comparison of the activity of Compound (12) and Compound (5) in the croton oil model of topical anti-inflammatory activity

[4] abbreviates: 2 mg/rat, first experiment (compounds 5, 6, naproxen), -ve control 128.4, +ve control 163.2, 6 hours.
The mark [5] stands for this setting: 2 mg/rat, first experiment, -ve control 122.5, +ve control 151.8, 6 hours.
Where [6] appears, read: 2 mg/rat, first experiment, 6 hours.

This is an account of results in patent US4303674A, “Substituted decalins, their preparation and use” (Beecham Group Limited, priority 1979, dated 1981).

“Also recorded” adds a separate entry of the source.

Regarding `CC(=O)CCC1CCC2=CC(=O)CCC2(C)C1` (stereo not shown) [Compound (5), 4a-Methyl-6-(3'-oxobutyl)-2,3,4,4a,5,6,7,8-octahydro-2-naphthalenone], the “Mean weight of Treated Ear” value in test [1] (setting [4]) stood at 135.4 ± 3.3 m.g. In addition, the “Mean weight of Untreated Ear” value in test [1] (setting [5]) is 169.0 ± 7.4 m.g. Also, in test [1] (setting [6]), the “Treated Ear, % in parentheses (reduction of ear weight increase vs +ve control)” value turned out to be 80% and the “Untreated Ear, % in parentheses (reduction of ear weight increase vs +ve control)” value was -59%. Also, the “reduction of the increase in ear weight / activity (in words)” value in test [1] was “significantly reduced the increase in ear weight brought about by the irritant solution; also recorded: The activity was at the same dose as that of naproxen”. In addition, in test [2] (4 mg/ear), the “Untreated Ear Wt mg ± s.e.” value stood at 134.3 mg, the “Treated Ear Wt mg ± s.e.” value is on record as 140.5 mg, the “Treated Ear % Inhibition” value is 32% and the “Untreated Ear % Inhibition” value is 22%. Moreover, in test [3] (1 mg/ear), the “Treated Ear Wt mg ± s.e.” value came to 124.5 ± 4.6 mg, the “Untreated Ear Wt mg ± s.e.” value stood at 119.9 ± 4.7 mg, the “Treated Ear % Inhibition” value was 6% and the “Untreated Ear % Inhibition” value is on record as -6%. Further, in test [3] (2 mg/ear), the “Treated Ear Wt mg ± s.e.” value came out at 116.4 ± 3.8 mg, the “Untreated Ear Wt mg ± s.e.” value stood at 119.9 ± 5.1 mg, the “Treated Ear % Inhibition” value is given as 35% and the “Untreated Ear % Inhibition” value is -6%. Also, in test [3] (4 mg/ear), the “Treated Ear Wt mg ± s.e.” value amounted to 108.2 ± 2.8 mg, the “Untreated Ear Wt mg ± s.e.” value was 115.5 ± 5.6 mg, the “Treated Ear % Inhibition” value worked out at 65% and the “Untreated Ear % Inhibition” value worked out at 16%. This compound also gave an ED50 in test [3] of 2.8 mg/ear.

Regarding `CC(=O)CCC1CCC2=CC(=O)C=CC2(C)C1` (stereo not shown) [Compound (6)], in test [1] (setting [4]), the “Mean weight of Treated Ear” value is listed as 134.3 ± 2.3 m.g. For the same compound, in test [1] (setting [5]), the “Mean weight of Untreated Ear” value worked out at 159.1 ± 5.1 m.g. Besides, in test [1] (setting [6]), the “Treated Ear, % in parentheses (reduction of ear weight increase vs +ve control)” value was 83% and the “Untreated Ear, % in parentheses (reduction of ear weight increase vs +ve control)” value is given as -25%. For the same compound, the “reduction of the increase in ear weight / activity (in words)” value in test [1] was “appeared equi-active with Compound (5)”.

With `CC(=O)CCC1CCC2=CC(=O)CCC2C1` (stereo not shown) [Compound (12), 6-(3'-Oxobutyl)-2,3,4,4a,5,6,7,8-octahydronaphthalene-2-one], the “Mean weight of Treated Ear” value in test [1] (4 mg/rat, second experiment (compound 12), -ve control 127.0, +ve control 152.2) was 136.9 ± 2.9 m.g. In addition, in test [1] (4 mg/rat, second experiment, -ve control 130.1, +ve control 159.4), the “Mean weight of Untreated Ear” value is on record as 148.0 ± 3.9 m.g. In test [1] (4 mg/rat, second experiment), the “Treated Ear, % in parentheses (reduction of ear weight increase vs +ve control)” value stood at 61% and the “Untreated Ear, % in parentheses (reduction of ear weight increase vs +ve control)” value came to 51%. Also, in test [3] (1 mg/ear), the “Treated Ear Wt mg ± s.e.” value is listed as 116.1 ± 4.6 mg, the “Untreated Ear Wt mg ± s.e.” value is given as 112.6 ± 5.5 mg, the “Treated Ear % Inhibition” value turned out to be 36% and the “Untreated Ear % Inhibition” value was 31%. Besides, in test [3] (2 mg/ear), the “Treated Ear Wt mg ± s.e.” value came to 109.8 ± 3.2 mg, the “Untreated Ear Wt mg ± s.e.” value is reported as 117.0 ± 2.8 mg, the “Treated Ear % Inhibition” value amounted to 59% and the “Untreated Ear % Inhibition” value worked out at 9%. In addition, in test [3] (4 mg/ear), the “Treated Ear Wt mg ± s.e.” value is listed as 106.3 ± 3.4 mg, the “Untreated Ear Wt mg ± s.e.” value is 120.6 ± 4.5 mg, the “Treated Ear % Inhibition” value was 72% and the “Untreated Ear % Inhibition” value is -10%. The ED50 in test [3] stood at 1.6 mg/ear. Also, the “potency relative to Compound (5)” value in test [3] (dose response against 1% croton oil in tetrahydrofuran) is “of the order of two fold more potent than Compound (5)”.

For `C[C@]12CCC(=O)C=C1CC[C@@H]1[C@@H]2[C@@H](O)C[C@@]2(C)[C@H]1CC[C@]2(O)C(=O)CO` [Hydrocortisone], in test [2] (2 mg/ear), the “Untreated Ear Wt mg ± s.e.” value was found to be 142.0 mg, the “Treated Ear Wt mg ± s.e.” value is recorded as 133.1 mg, the “Treated Ear % Inhibition” value was 43% and the “Untreated Ear % Inhibition” value was determined as 8%.

Regarding `COc1ccc2cc([C@H](C)C(=O)O)ccc2c1` [Naproxen, reference compound], the “Mean weight of Treated Ear” value in test [1] (setting [4]) was 139.5 ± 3.0 m.g. The “Mean weight of Untreated Ear” value in test [1] (setting [5]) came out at 162.2 ± 4.9 m.g. Besides, in test [1] (setting [6]), the “Treated Ear, % in parentheses (reduction of ear weight increase vs +ve control)” value was 68% and the “Untreated Ear, % in parentheses (reduction of ear weight increase vs +ve control)” value is -35%. Further, the “Mean weight of Treated Ear” value in test [1] (2 mg/rat, second experiment (with compound 12), -ve control 127.0, +ve control 152.2) is 141.2 ± 3.7 m.g. In test [1] (2 mg/rat, second experiment, -ve control 130.1, +ve control 159.4), the “Mean weight of Untreated Ear” value was determined as 155.9 ± 4.1 m.g. Also, in test [1] (2 mg/rat, second experiment), the “Treated Ear, % in parentheses (reduction of ear weight increase vs +ve control)” value is recorded as 44% and the “Untreated Ear, % in parentheses (reduction of ear weight increase vs +ve control)” value is reported as 12%. For the same compound, in test [2] (4 mg/ear), the “Untreated Ear Wt mg ± s.e.” value turned out to be 145.0 mg, the “Treated Ear Wt mg ± s.e.” value amounted to 184.8 mg, the “Treated Ear % Inhibition” value is recorded as -34% and the “Untreated Ear % Inhibition” value was 2%.
